Reference: paper PMC3733398 (ACS medicinal chemistry letters, 2013)

Test system: sensitive, MDR and XDR clinical Mtb strains
Assay type: cell-based, Mycobacterium tuberculosis
Conditions: panel of MDR and XDR drug resistant clinical Mtb strains

With `Cc1ccn2c(C(=O)NCc3ccc(Oc4ccc(F)cc4)cc3)c(C)nc2c1` [Compound 18] the “potency surpassing that of PA-824” value was about 10 fold.
